Data taken from publication PMC8659078, “A Validated HPLC-PDA-HRMS Method to Investigate the Biological Stability and Metabolism of Antiparasitic Triterpenic Esters” (Molecules, 2021).
Where a name gives a salt, the structure may show the parent alone.

Columns and labels:
[1] = in vitro; conditions: male, mouse, pooled liver microsomes, pH 7.4
[2] = parameters: method as in earlier work; conditions: ref 3 (supplement); cited from earlier work
[3] = cited from earlier work

| Structure (SMILES) | bound to plasma proteins [3] | also measured |
| --- | --- | --- |
| O=C(O)Cc1ccccc1Nc1c(Cl)cccc1Cl [Diclofenac, diclofenac sodium salt] | – | half-life [1]: 2.55 h |
| CCN(CC)CCOC(=O)c1ccc(N)cc1 [Procaine, Procaine hydrochloride] | – | time of hydrolysis by human plasma esterases into PABA [2]: ~ 10 min |
| C[C@H]1[C@H](C)CC[C@]2(C(=O)O)CC[C@]3(C)C(=CC[C@@H]4[C@@]5(C)C[C@@H](O)[C@H](O)[C@@](C)(CO)[C@@H]5CC[C@]43C)[C@H]12 [asiatic acid] | more than 95% | – |
| C=C(C)[C@@H]1CC[C@]2(C(=O)O)CC[C@]3(C)[C@H](CC[C@@H]4[C@@]5(C)CC[C@H](O)C(C)(C)[C@@H]5CC[C@]43C)[C@@H]12 [betulinic acid] | more than 95% | – |
| CC1(C)CC[C@]2(C(=O)O)CC[C@]3(C)C(=CC[C@@H]4[C@@]5(C)CC[C@H](O)C(C)(C)[C@@H]5CC[C@]43C)[C@@H]2C1 [oleanolic acid] | more than 95% | – |
| C[C@H]1[C@H](C)CC[C@]2(C(=O)O)CC[C@]3(C)C(=CC[C@@H]4[C@@]5(C)CC[C@H](O)C(C)(C)[C@@H]5CC[C@]43C)[C@H]12 [ursolic acid] | more than 95% | – |
